Measured values taken from patent US12708676B2, “Phosphate compounds for detecting neurological disorders” (Amydis, Inc., priority 2018, dated 2026).
≈ marks a conversion by molar mass, not a printed value. Like-named read-outs stand apart in the source and are kept apart here.

Columns and labels:
[1] = system: Aβ; assay: Example 4: detection of Aβ in the retina of a TBI (blast) mouse model; format: in vivo; conditions: blast model mice 24 hours after injury, Compound 9 intravenously; example in present tense
Protocol: This example is conducted to determine whether Compound 9 detects Aβ in the retina of a TBI mouse model.
Blast model mice 24 hours after injury and a non-injured mouse are administered Compound 9 intravenously. Mice retinas are scanned by scanning laser ophthalmoscopy (SLO).
Alternatively, or in addition to retinal scanning, retinal tissues are removed and stained with an anti-Aβ antibody (6E10).

[2] = Rabbit pharmacokinetics of Compound 9, Study 2 (retina, brain, blood/plasma); format: in vivo
Protocol: (§1) Compound 9 was injected into rabbits as a solution in 0.1 M phosphate buffer, pH 7.4 such that rabbits received either 30 mg of Compound 9 (Study 1) or 28 mg of Compound 9 (Study 2). The purpose of these studies was to confirm that Compound 9 could easily be converted into Compound 7 in vivo.
Study 2: The purpose of this study was to determine if higher concentrations of Compound 9 and/or Compound 7 was present at earlier time points in the tissues specified. Rabbits received a 1.4 mL injection of a 20 mg/mL solution of Compound 9 in 0.1 M phosphate buffer, pH 7.4. Blood was collected from rabbits (N=6) two minutes after receiving Compound 9 to determine the blood concentration at this time point (Table 8). Rabbits were then sacrificed at the specified time points (N=3 per time point) in the tables below and the average concentrations of Compound 9 and Compound 7 were determined in the retina (Table 6), brain (Table 7) and blood (Table 8).

[3] = Rabbit pharmacokinetics of Compound 9, Study 1 (retina, brain, blood); format: in vivo; conditions: other: injection (site not specified), Study 1, 30 mg Compound 9 injected
Protocol: as §1
Study 1: Rabbits received a 1.5 mL injection of a 20 mg/mL solution of Compound 9 in 0.1 M phosphate buffer, pH 7.4. Rabbits were sacrificed at the specified time points (N=3 per time point) in the tables below and the average concentration of Compound 9 and Compound 7 was determined in the retina (Table 3), brain (Table 4) and blood (Table 5).

[4] = Solubility of Compound 9 / phosphate prodrugs; format: physicochemical; conditions: aqueous buffer; phosphate buffer at pH 7.4
Description: Due to the poor water solubility and the large particle size of compounds such as Compound 7, prodrug derivatives of these compounds were investigated.

[5] = system: hyperphosphorylated three repeat tau protein; assay: Example 3: retinal fluorescent imaging of model mice after intravenous Compound 9; set-up: species or system mouse; conditions: Compound 9 intravenously, retinas imaged ex vivo, example in present tense
Protocol: Model mice having a detectable target protein, for example, an amyloid beta protein, or a phosphorylated tau protein, or an accumulated mass thereof, are administered Compound 9 intravenously. Retinas of the mice are removed and are mounted on slides. The retinas are washed with PBS 2 times for 5 minutes. A solution of 98% formic acid is added—5 minutes for antigen retrieval. The sampled are washed with distilled water—2 times for 5 minutes. The samples are equilibrated in 1×PBS for 15 minutes, then blocked with 10% goat/donkey serum in 1× PB ST (depending on antibodies) for 1 hour. Samples are covered in foil, and washed with 1× PBS 3 times for 5 minutes each. Samples are stained with DAPI (300 nM or 100 ng/mL) in dark for 10 minutes, then tissues are washed 3×10 minutes with PBS. Antifade DAKO mounting medium is added, and coverslip and kept under foil until imaging.
Fluorescent imaging study of the samples is conducted on a Leica DMI 4000B microscope (Leica, Germany) equipped with a TCS SPE camera and Leica 10, 20 and 40× objectives. The following lasers are used to visualize fluorescent probes pertaining to DAPI (blue, nuclear stain), Compound 7 (green) and hyperphosphorylated tau (red): 408, 488 and 568 nm. Z-stacked images are taken at 40× at 0.5 μm increments to visualize the entire thickness of the tissue.

concentration at 5 min ([2]; brain, other: injection (site or type of injection not stated), rabbit, Study 2, 28 mg Compound 9 injected, 5 min, read-out: Avg Conc., brain): 7.2 ± 2.62 ng/g
concentration at 10 min ([2]; brain, other: injection (site or type of injection not stated), rabbit, Study 2, 28 mg Compound 9 injected, read-out: Avg Conc., brain): 2.23 ± 0.426 ng/g
Kp ([2]; brain, rabbit, after injection of Compound 9): < 0.001
Conversion of Compound 9 to Compound 7 in vivo ([2]; healthy rabbit model): rapidly converted to Compound 7
concentration at 2 min ([2]; plasma, other: injection (site not specified), rabbit, Study 2, 28 mg Compound 9 injected, 2 min, read-out: Avg Conc., plasma): 67600 ± 18800 ng/mL
concentration at 5 min ([2]; plasma, other: injection (site not specified), rabbit, Study 2, 28 mg Compound 9 injected, 5 min, read-out: Avg Conc., plasma): 40000 ± 11800 ng/mL
concentration at 10 min ([2]; plasma, other: injection (site not specified), rabbit, Study 2, 28 mg Compound 9 injected, read-out: Avg Conc., plasma): 8860 ± 1310 ng/mL
Avg Conc., retina ([2]; rabbit, Study 2, 28 mg Compound 9 injected, 5 min): remained undetectable
concentration at 15 min ([3]; blood, read-out: Avg Conc., blood): 5440 ± 767 ng/mL
concentration at 30 min ([3]; blood, 30 min, read-out: Avg Conc., blood): 374 ± 301 ng/mL
concentration at 60 min ([3]; blood, 60 min, read-out: Avg Conc., blood): 24.9 ± 31.8 ng/mL
concentration at 15 min ([3]; brain, read-out: Avg Conc., brain): 0.439 ng/g
solubility [4]: 20 to 30 mg/mL (≈ 38.6 to 58 mM)
SMILES: N#C/C(=C\c1ccc2cc(N3CCCCC3)ccc2c1)C(=O)NCCOCCOCCOP(=O)(O)O [Compound 9]
Scanning laser ophthalmoscopy image of retina [1]: showing the presence of Aβ plaques
Adverse reactions ([2]; rabbits, during the time course of the study): no adverse reactions were noted
Detection of hyperphosphorylated three repeat tau protein in the retina [5]: detected in the retina, producing a detectable fluorescent signal
